Results published in patent publication US20120288443A1, “LABELLED PYRROLYL-OXADIAZOLYL-DIAZABICYCLONONANE DERIVATIVES AND THEIR USE IN DIAGNOSTIC METHODS” (N[…]/S, priority 2009, published 2012).

Assays:
[1] = molecular target: T1, nicotinic α7 acetylcholine receptor (Sus scrofa, UniProt F1SNR6); assay: Distribution volumes (VT) of Compound 1 in pig brain by PET, baseline vs pre-treatment; assay type: in vivo; design: nicotinic α7 acetylcholine receptor in the pig brain; from tissue; host or cells: brain of living pigs (in vivo PET); settings: for change of distribution volume (VT) of Compound 1 tracer following pre-treatment: pig brain, Logan plot kinetic modelling, pre-treatment 10 mg/kg Compound 1 or 1 or 10 mg/kg SSR180711 i.v.
Procedure: The distribution volumes are determined in the pig brain at baseline, or following pre-treatment with either Compound 1 or SSR180711.
Five pigs were PET scanned at baseline with Compound 1 in the HRRT scanner. Subsequently, the pigs were administered either 10 mg/kg Compound 1 or SSR180711 (1 mg/kg or 10 mg/kg, i.v.), and 30 minutes or 4 hours later, the pigs were scanned a second time using the same PET protocol.
VT is a measure of concentrations of Compound 1 in a given region relative to the plasma concentration. VT was calculated by kinetic modelling using Logan plot linearization. All kinetic modelling was done in PMOD version 3.0 (PMOD technologies, Inc.).

[2] = molecular target: T1, nicotinic α7 acetylcholine receptor; assay: Receptor occupancy by PET (occupancy plotting of logan plot VT) after pre-treatment with cold ligand; assay type: in vivo, Danish Landrace pigs; design: nicotinic α7 acetylcholine receptor in the pig brain; from tissue; host or cells: brain of living Danish Landrace pigs (in vivo PET); settings: for occupancy of nicotinic α7 acetylcholine receptors: pre-treatment 10 mg/kg iv Compound 1 (cold ligand)
Procedure: (§1) Compound 1 was given as an intravenous bolus injection to a total of five Danish Landrace pigs, and the pigs were subsequently scanned for 90 minutes in a high resolution research tomography (HRRT) PET scanner. Hereafter, the pigs were re-scanned after pre-treatment with cold ligand, either Compound 1 (10 mg/kg, iv) or SSR180711 (1 mg/kg or 10 mg/kg, iv).

[3] = PET scan of brain uptake and distribution after i.v. bolus injection; assay type: in vivo, Danish Landrace pigs; settings: pig, 90 minutes HRRT PET scan
Procedure: Five Danish Landrace pigs were PET scanned in a high-resolution research tomography (HRRT) scanner after i.v. bolus injection of Compound 1 at t=0 mins. Points and connecting line indicate regional radioactive concentration normalized to injected dose per kg body weight, i.e. standardized uptake values (SUV).
as §1
Pre-treatment with Compound 1 and SSR180711 lead to a decline in the distribution volumes (VT) of Compound 1 as determined with logan plot kinetic modelling.

T1 sequence (F1SNR6 20-499): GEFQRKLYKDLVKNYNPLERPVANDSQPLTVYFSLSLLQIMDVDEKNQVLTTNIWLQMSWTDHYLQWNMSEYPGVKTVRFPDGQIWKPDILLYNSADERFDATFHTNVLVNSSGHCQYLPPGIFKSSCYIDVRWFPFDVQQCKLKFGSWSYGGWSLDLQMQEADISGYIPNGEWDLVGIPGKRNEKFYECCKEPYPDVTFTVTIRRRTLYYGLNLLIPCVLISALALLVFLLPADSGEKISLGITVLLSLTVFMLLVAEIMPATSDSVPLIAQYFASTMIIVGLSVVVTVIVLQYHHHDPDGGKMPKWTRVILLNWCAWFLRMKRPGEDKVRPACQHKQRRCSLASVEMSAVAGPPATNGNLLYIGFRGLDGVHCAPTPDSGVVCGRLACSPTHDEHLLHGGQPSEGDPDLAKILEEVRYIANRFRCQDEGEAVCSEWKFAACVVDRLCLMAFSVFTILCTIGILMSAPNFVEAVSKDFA

receptor occupancy at 1 mg/kg ([2]; pig, iv, pre-treatment 1 mg/kg iv SSR180711, tracer Compound 1, read-out: occupancy of nicotinic α7 acetylcholine receptor in the pig brain) | receptor occupancy at 10 mg/kg ([2]; pig, iv, pre-treatment 10 mg/kg iv SSR180711, tracer Compound 1, two values 'respectively', read-out: occupancy of nicotinic α7 acetylcholine receptor in the pig brain) | occupancy of nicotinic α7 acetylcholine receptor in the pig brain ([2]; pre-treatment 10 mg/kg iv SSR180711, tracer Compound 1, two values 'respectively') | Compound | change of distribution volume (VT) of Compound 1 tracer following pre-treatment [1] | brain entry and regional distribution [3] | binding to nicotinic α7 acetylcholine receptor in the pig brain ([1]; concluded from VT decrease after pre-treatment) | occupancy of nicotinic α7 acetylcholine receptors ([2]; inter-scan interval 4 hours) | occupancy of nicotinic α7 acetylcholine receptors ([2]; second scan 30 minutes after pre-treatment)
52% | 70% | 59% | O=C(Oc1ccc(Br)cc1)N1CCN2CCC1CC2 [SSR180711, 1,4-Diazabicyclo[3.2.2]nonane-4-carboxylic acid, 4-bromophenyl ester] | decreased | – | – | – | –
– | – | – | 2-(1,4-Diazabicyclo[3.2.2]nonan-4-yl)-5-(1-[^11C]methylpyrrol-2-yl)-1,3,4-oxadiazole [Compound 1] | decreased | entered into the pig brain, and the distribution was mainly found in the cerebral cortex and the thalamus | binds specifically and selectively | 43% | 81%
